# According to patent US20130253039A1, “COLORECTAL CANCER TREATMENTS AND DIAGNOSTIC IMPROVEMENTS” (priority 2012, published 2013):
# Where two headings read alike, the source gives them in different places.
# Assays:
# HCT116 = assay: Cell-kill assay, HCT116; type: cell-based; conditions: Homo sapiens, HCT-116; free tiazofurin, 72 h
# Experimental: (§1) Human colorectal cancer cell lines HCT15, HCT116, HT29, HCC2998, and Caco2 were obtained from the National Cancer Institute, Bethesda, Md., USA, maintained in 5% CO2 at 3TC in minimum essential media containing 2.3 μM folic acid (MEM, Life Technologies, Inc., Grand Island, N.Y.) supplemented with 1% penicillin, streptomycin, amphotericin B (Invitrogen, Carlsbad, Calif.), and 10% fetal bovine serum (FBS) for all cell lines except Caco2, which required 20% FBS for optimal growth. Caco2 and HT29 cells were adapted to grow in a low-folate (LF) condition by step-wise reduction of the folate concentration in the medium and finally were stably adapted to grow in folate-free MEM supplemented with 20% and 10% FBS, respectively. The complete LF medium with 20% FBS for Caco2 cells contained 18 nM 5-methyltetrahydrofolate and the LF medium with 10% FBS for HT29 cells contained 9 nM 5-methyltetrahydrofolate. The cells were cultured in low 5-methyltetrahydrofolate conditioned medium for at least 20 generations before they were used in the experiments to promote full expression of folate receptors, and logarithmically growing cells were utilized for all studies.
# [1] = system: hNMNAT2-over-expressed HT29; assay: Antitumor activity in athymic mice with subcutaneous hNMNAT2-over-expressed HT29 tumors; type: in vivo
# Experimental: (§2) In vivo studies were conducted studies to compare antitumor activity of tiazofurin in athymic mice implanted subcutaneously with wild-type and hNMNAT2-over-expressed HT29 cell lines. Groups of five female athymic mice 6-8 weeks old, weighing 16-18 grams, obtained from Harlan Sprague Dawley, Indianapolis, Ind., were injected with wild-type or hNMNAT2-over-expressed HT29 (2×10^6 cells/mice), and tumors were allowed to establish for 7 days. Mice were then treated intraperitoneally with saline or tiazofurin once-a-day for 10 days (QD10) and tumor volume and weights were monitored twice a week. […] There was a dose-dependent decrease in tumor volume following tiazofurin treatment in mice bearing wild-type HT29 (70% decrease in tumor volume at 200 mg/kg and 50% decrease in tumor volume at 50 mg/kg). […] These studies indicate that hNMNAT2-gene-targeted tiazofurin therapy for colorectal cancer is feasible. Further decreasing the dose of tiazofurin will be possible by targeting FR and/or CEA and encapsulating tiazofurin in folate-tethered nanoparticles. Further targeting would translate to additional lowering of tiazofurin induced side-effects.
# [2] = system: hNMNAT-2-shRNA knockdown cells (Caco2); assay: Cell-kill assay, hNMNAT-2-shRNA knockdown Caco2 cells; type: cell-based; conditions: Homo sapiens, Caco-2; hNMNAT2 overexpressing Caco2 silenced with hNMNAT2-shRNA, puromycin selected
# Source text: Colorectal cancer Caco2 cells overexpressing hNMNAT2 were transfected with control shRNA plasmid and NMNAT2 small hairpin shRNA plasmid (sc-62693-SH: NMNAT2 shRNA Plasmid (h) is a pool of 3 different shRNA plasmids with a hairpin sequence: […] (SEQ ID NO: 3) and sc-62693-SHA: 5′-GUAGAAAGUGAGACUCAAUtt-3′ (SEQ ID NO: 4) and 5′-AUUGAGUCUCACUUUCUACtt-3′ (SEQ ID NO: 5); sc-62693-SHB: 5′-CCUUAGGAAUAGCAUUGUAtt-3′ (SEQ ID NO: 6) and 5′-UACAAUGCUAUUCCUAAGGtt-3′ (SEQ ID NO: 7); sc-62693-SHC: 5′-GCUCUUUCCCUCAACCUUAtt-3′ (SEQ ID NO: 8) and 5′-UAAGGUUGAGGGAAAGAGCtt-3′ (SEQ ID NO: 9). Transfection was conducted for 8 h as per manufacturer's instructions (Santa Cruz Biotechnology, Inc., Santa Cruz, Calif.). Puromycin resistant clones were selected and knockdown of hNMNAT2 was confirmed by Western blot analyses.
# GTP pools = assay: GTP concentration in colorectal cancer cells after tiazofurin treatment (HPLC); type: cell-based, human; conditions: 4 h
# Experimental: The y-axis of the bar graph indicate the GTP concentration in nmol per million cells while the x-axis gives the tiazofurin concentration used; Panels C and F, effect of TAD concentration following tiazofurin treatment. Triplicate flasks were set-up with each cell line, treated with tiazofurin Caco2 (300 μM), and HT29 (150 μM) for 4 h and processed as detailed in Methods section below. The y-axis indicates the TAD concentration in nmol per million cells. ? Wild-type (WT), ? hNMNAT2 transfected cell line. • *Denotes statistical significance (P<0.05) NS Denotes not significant
# (§3) For the determination of GTP and TAD, colorectal cancer cells were treated with concentration of tiazofurin (specified in legends to figures) or with saline for 4 h and cell extracts were prepared as detailed earlier. An aliquot of neutralized extract was injected into Phenomenex Gemini 250×4.6 mm, 5μ C18 110A column (Torrance, Calif.) maintained at 19° C., preequilibrated with buffer A (0.1 M potassium phosphate, pH 6.0) and then subjected to a stepwise gradient of buffer A with 20% acetonitrile, pH 6.0 over 30 min and analyzed on Shimadzu High Performance Liquid Chromatography (Canby, Oreg.). Under these conditions GTP eluted at 10 min separated from other nucleotides.
# Caco2 = assay: Cell-kill assay, wild-type Caco2; type: cell-based, human
# Experimental: as §1
# [3] = dose of 1,100 mg/m^2, patients; cited from earlier work
# IMPDH = target: T1, IMPDH (Homo sapiens, UniProt P12268); assay: IMPDH activity in Caco2 cell lines after tiazofurin treatment; type: cell-based; conditions: 4 h
# T1 construct: endogenous in cells; host or cells: Caco2 (wild-type and hNMNAT2-transfected)
# Experimental: Panel A, Cells were Processed and NAD levels were determined in the cytoplasmic extracts as described in the Methods section, below. […] Triplicate flasks were set-up with each cell line and incubated with saline or tiazofurin (100-300 μM) for 4 h at 3TC. Cells were processed as described in the Methods section below. Basal IMPDH activity in saline treated control was 1.85 […] of XMP synthesized/mg protein/min; Panel D, NMNAT enzyme activity in wild-type and hNMNAT2 transfected Caco2 cell lines. The y-axis of the bar graph indicates the NMNAT activity in unit/mg of protein; Panel E, hNMNAT2 expression in cytoplasm, nucleus, and mitochondria. Cytoplasmic, nuclear, and mitochondrial proteins were isolated as detailed in the Methods section below and expression of hNMNAT2 protein was determined by Western blot analysis in wild-type and hNMNAT2 transfected caco2 cell lines; Panel F, silencing of hNMNAT2 expression in hNMNAT2 overexpressing cell line. hNMNAT2 expression in transfected Caco2 cell lines was silenced by shRNA-NMNAT2 and there expression was determined by Western blot analysis; Panel G, the wild-type, hNMNAT2 overexpressing, and hNMNAT2 overexpressing Caco2 cell lines were subjected to cell-kill by tiazofurin. ? […]
# Colorectal cancer cells were extracted and IMPDH activity was assayed as described and activity is expressed as nmol/min/mg protein [8]. […]
# HCT15 = assay: Cell-kill assay (dye-based cell proliferation), HCT15; conditions: Homo sapiens, HCT-15; free tiazofurin, 72 h
# Experimental: as §1
# [4] = system: human colorectal carcinoma; conditions: mouse, in vivo; cited from earlier work
# HCC2998 = assay: Cell-kill assay, HCC2998; type: cell-based; conditions: Homo sapiens, HCC 2998; free tiazofurin, 72 h
# Experimental: as §1
# colorectal cancer = conditions: 21 patients, bolus once a day for 5 days; cited from earlier work
# [5] = system: hNMNAT2 transfected HT29 cell line; assay: Cell-kill assay, hNMNAT2 transfected HT29; conditions: Homo sapiens, HT-29, 72 h, read-out: Cytotoxicity EC50, hNMNAT2
# Experimental: (§4) Colorectal cancer cells were transfected with pTracer hNMNAT2 and the control plasmid pTracerEFV5/HisA using the lipofectamine reagent (Invitrogen, Carlsbad, Calif.). Zeocin resistant green fluorescence protein (GFP) expressing clones were further analyzed by Fluorescence-activated cell sorting (Becton Dickinson Immunocytometry Systems, San Jose, Calif.).
# (§5) Colorectal cancer cells (1500 cells/0.1 ml) were dispensed into 96-well tissue culture plates and 24 h later treated with serial dilutions of free tiazofurin or nanoparticles containing tiazofurin (for nanoparticle treatment, cells were incubated for 2 h with gentle shaking, aspirated and fresh media was added) and further incubated for 72 h at 3TC. After incubation, 20 μl of 3-(4,5-dimethylthiazol-2-yl)-5-(3-carboxymethoxyphenyl)-2-(4-sulfophenyl)-2H-tetrazolium reagent was added to each well, mixed, plates were further incubated for 2 h and color developed was read at 490 nm using a microplate spectrophotometer (Spectra MAX250, Molecular Devices, Sunnnyvale, Calif.) and cell-kill data were analyzed by Graphpad Prism 4 software (GraphPad Software, San Diego, Calif.).
# HT29 = assay: Cell-kill assay, wild-type HT29; type: cell-based, human; conditions: for EC50: wild-type HT29, free tiazofurin, 72 h, read-out: Cytotoxicity EC50, Wild-type
# Experimental: as §1
# TAD concentration = TAD concentration in colorectal cancer cells after tiazofurin treatment (HPLC); type: cell-based, human; conditions: 4 h
# Experimental: Panels A, B, D, and E, triplicate flasks were set-up with each cell line, treated with tiazofurin (0, 150 and 300 μM) for Caco2 and (0, 50 and 150 μM) for HT29 for 4 h and the cells were processed as detailed in Methods section below. The y-axis of the bar graph indicate the GTP concentration in nmol per million cells while the x-axis gives the tiazofurin concentration used; Panels C and F, effect of TAD concentration following tiazofurin treatment. Triplicate flasks were set-up with each cell line, treated with tiazofurin Caco2 (300 μM), and HT29 (150 μM) for 4 h and processed as detailed in Methods section below. The y-axis indicates the TAD concentration in nmol per million cells. ? […]
# as §3, with “Under these conditions GTP eluted at 10 min separated from other nucleotides.” left out
# [6] = system: hNMNAT2 transfected Caco2 cell line; assay: Cell-kill assay, hNMNAT2 transfected Caco2; conditions: Homo sapiens, Caco-2, 72 h, read-out: Cytotoxicity EC50, hNMNAT2
# Experimental: as §4, §5
# wild-type HT29 = assay: Antitumor activity in athymic mice with subcutaneous wild-type HT29 tumors; type: in vivo
# Experimental: as §2
# [7] = 50 mg/kg intraperitoneally once-a-day for 10 days
# [8] = 200 mg/kg intraperitoneally once-a-day for 10 days
# T1 sequence (P12268 2-514): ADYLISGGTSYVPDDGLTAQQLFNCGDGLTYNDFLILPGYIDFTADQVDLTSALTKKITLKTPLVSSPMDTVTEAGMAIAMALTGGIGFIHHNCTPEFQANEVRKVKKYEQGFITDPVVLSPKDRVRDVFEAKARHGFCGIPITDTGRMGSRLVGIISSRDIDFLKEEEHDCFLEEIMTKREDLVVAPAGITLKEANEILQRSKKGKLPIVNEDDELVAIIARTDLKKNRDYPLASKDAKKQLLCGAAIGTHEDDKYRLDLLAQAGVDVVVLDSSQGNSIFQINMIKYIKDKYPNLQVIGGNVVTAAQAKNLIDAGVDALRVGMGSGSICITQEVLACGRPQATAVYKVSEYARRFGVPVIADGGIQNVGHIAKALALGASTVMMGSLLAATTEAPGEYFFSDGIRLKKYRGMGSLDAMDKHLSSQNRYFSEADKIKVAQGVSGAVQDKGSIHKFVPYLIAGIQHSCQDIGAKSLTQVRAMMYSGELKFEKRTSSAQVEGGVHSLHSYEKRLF
structure (smiles),measurement,setting,value
"NC(=O)c1csc([C@@H]2O[C@H](CO)[C@@H](O)[C@H]2O)n1 [tiazofurin, 2-R-D-ribofuranosylthiazole-4-carboxamide]",EC50,HCT116,72.6 µM
same,Effect on tumor,[1]; [7],complete disappearance of tumor
same,Effect on tumor,[1]; [8],complete disappearance of tumor
same,EC50,[2],380 µM
same,Reduction in GTP levels,"GTP pools; hNMNAT2-transfected Caco2, 150 μM tiazofurin",40%
same,Reduction in GTP levels,"GTP pools; hNMNAT2-transfected Caco2, 300 μM tiazofurin",60%
same,Reduction in GTP levels,"GTP pools; hNMNAT2-transfected HT29, 25 μM tiazofurin",21%
same,Reduction in GTP levels,"GTP pools; hNMNAT2-transfected HT29, 100 μM tiazofurin",47%
same,Reduction in GTP pools,"GTP pools; wild-type Caco-2, 150 μM tiazofurin",29%
same,Reduction in GTP pools,"GTP pools; wild-type Caco-2, 300 μM tiazofurin",45%
same,GTP reduction,"GTP pools; wild-type HT29, 25 μM tiazofurin",did not result in GTP reduction
same,GTP reduction,"GTP pools; wild-type HT29, 100 μM tiazofurin",22%
same,EC50,"Caco2; Homo sapiens, Caco-2, 72 h, wild-type Caco2, free tiazofurin, 72 h, read-out: Cytotoxicity EC50, Wild-type",450 µM
same,Influence of silencing hNMNAT3 on cell-kill by tiazofurin,"Caco2; wild-type and hNMNAT2 overexpressing Caco2, siRNA-hNMNAT3 24 h",no change in the dose of tiazofurin required to provide 50% cell-kill
same,Influence of silencing hNMNAT1 on cell-kill by tiazofurin,"Caco2; wild-type or hNMNAT2 overexpressing Caco2, siRNA-hNMNAT1 day 3",did not have any influence on cell-kill by tiazofurin
same,Peak plasma concentration,[3],240 µM
same,EC50,"IMPDH; hNMNAT2 transfected Caco2, tiazofurin 100-300 μM, read-out: EC50 of decrease in IMPDH activity",250 µM
same,Effect on IMPDH activity,"IMPDH; wild-type Caco2, sub-lethal tiazofurin 100-300 μM",no reduction in IMPDH activity
same,EC50,HCT15,63.9 µM
same,Antitumor activity,[4],significant antitumor activity
same,EC50,HCC2998,274 µM
same,Antitumor activity,colorectal cancer,no significant antitumor activity
same,EC50,[5],80 ± 3 µM
same,EC50,"HT29; Homo sapiens, HT-29, 72 h",125 µM
same,EC50,HT29,130 ± 8 µM
same,Influence of silencing hNMNAT3 on cell-kill by tiazofurin,"HT29; wild-type and hNMNAT2 overexpressing HT29, siRNA-hNMNAT3 24 h",did not influence cell-kill by tiazofurin
same,Influence of silencing hNMNAT1 on cell-kill by tiazofurin,"HT29; wild-type or hNMNAT2-overexpressing HT29, siRNA-hNMNAT1 day 3",had no effect on tiazofurin cell-kill
same,Fold higher concentration of TAD in hNMNAT2 overexpressing vs wild-type cell line,"TAD concentration; Caco2, tiazofurin 300 μM",2 fold
same,Fold higher levels of TAD in hNMNAT2-overexpressing vs wild-type cell line,"TAD concentration; HT29, tiazofurin 150 μM",2 fold
same,EC50,[6],225 µM
same,Decrease in tumor volume,wild-type HT29; [7],50%
same,Decrease in tumor volume,wild-type HT29; [8],70%
